Experimental findings from PubChem BioAssay AID624029 (Broad Institute, 2012) are described below.

Activity calls are given as the source filed them.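 Rule for the calls: active = compounds lowering HDL uptake fluorescence with a fitted half-maximal potency at most twice the top tested dose; inconclusive = flat partial inhibition of 30 to 70% or an unreliable fit; inactive = the rest.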

The target of one experiment is Scavenger receptor class B member 1 (Mus musculus) (UniProt Q61009). As to the kind of experiment: inhibitors of SR-BI-mediated HDL uptake, dose response, cell-based, ldlA[mSR-BI] CHO, DiI fluorescence, dry powder, set 10 (AID 624029). The note with it: 3 h.
Sequence of Scavenger receptor class B member 1 (Mus musculus) (Q61009 whole entry, looked up): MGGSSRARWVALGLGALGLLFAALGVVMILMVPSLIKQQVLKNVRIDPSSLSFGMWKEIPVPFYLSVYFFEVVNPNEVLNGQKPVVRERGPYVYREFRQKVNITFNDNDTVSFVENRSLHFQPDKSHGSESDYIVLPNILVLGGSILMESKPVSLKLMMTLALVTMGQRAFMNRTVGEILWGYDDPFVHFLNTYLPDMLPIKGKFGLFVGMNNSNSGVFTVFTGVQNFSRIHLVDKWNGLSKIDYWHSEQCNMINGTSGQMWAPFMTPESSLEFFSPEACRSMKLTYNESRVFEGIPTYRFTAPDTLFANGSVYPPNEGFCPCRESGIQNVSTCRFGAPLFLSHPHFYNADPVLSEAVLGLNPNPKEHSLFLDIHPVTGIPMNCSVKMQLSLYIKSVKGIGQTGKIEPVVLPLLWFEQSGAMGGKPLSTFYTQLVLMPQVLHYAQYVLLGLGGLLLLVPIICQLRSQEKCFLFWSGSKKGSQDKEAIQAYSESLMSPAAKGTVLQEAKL
By AC50 is commonly meant the concentration giving half of the maximal activity seen. `CC(C)NC(=O)Nc1ccc2c(c1)C(=O)N([C@H](C)CO)C[C@@H](C)[C@H](CN(C)S(=O)(=O)c1ccc(Cl)cc1)O2`: the AC50 is 293 nM.

Still in this experiment, the particulars now being: 3 h, at 35 µM (top of the series).
For the molecule `CC(C)NC(=O)Nc1ccc2c(c1)CC(=O)N([C@H](C)CO)C[C@@H](C)[C@H](CN(C)S(=O)(=O)c1ccc(Cl)cc1)O2`, the “activity change, negative = inhibition” value was “inactive”.
For `CC(C)NC(=O)Nc1cccc2c1O[C@@H](CN(C)S(=O)(=O)c1ccc(Cl)cc1)[C@H](C)CN([C@H](C)CO)C2=O`, the “activity change, negative = inhibition” value is “inactive”.
Same read-out and setting: the same measure for `CC(C)NC(=O)Nc1ccc2c(c1)C(=O)N([C@H](C)CO[Si](C)(C)C(C)(C)C)C[C@@H](C)[C@H](CN(C)S(=O)(=O)c1ccc(Cl)cc1)O2`: “inactive”; for `CNC[C@@H]1Oc2ccc(NC(=O)NC(C)C)cc2C(=O)N([C@H](C)CO[Si](C)(C)C(C)(C)C)C[C@H]1C`: “inactive”; for `C=CCOC(=O)N(C)C[C@@H]1Oc2ccc(NC(=O)NC(C)C)cc2C(=O)N([C@H](C)CO[Si](C)(C)C(C)(C)C)C[C@H]1C`: “inactive”.
On to `C[C@@H]1CN([C@H](C)CO)C(=O)c2cc(NC(=O)Nc3ccc(F)cc3)ccc2O[C@H]1CN(C)S(=O)(=O)c1ccc(Cl)cc1`, for which the “activity change, negative = inhibition” value is “inactive”.
For the molecule `C=CCOC(=O)N(C)C[C@@H]1Oc2ccc(NC(=O)OCC3c4ccccc4-c4ccccc43)cc2C(=O)N([C@H](C)CO)C[C@H]1C`, the “activity change, negative = inhibition” value is “inactive”.
